Experimental findings from ChEMBL document CHEMBL4673293, “Trypanocidal activity of new 1,6-diphenyl-1H-pyrazolo[3,4-b]pyridine derivatives: Synthesis, in vitro and in vivo studies” (Bioorg Med Chem, 2021) are described below.

Active and inactive are the calls of the source. No cut-off for these calls is given here.

The nature of data set [1]: Selectivity index, ratio of CC50 for monkey LLC-MK2 cells to IC50 for antitrypanosomal activity against intracellular amastigote form of Trypanosoma cruzi Tulahuen strain infected in monkey LLC-MK2 cells. In kind it is toxicity, cell-based. The following applies: read-out: Ratio CC50/IC50.
Data set [2] is described as follows: Cytotoxicity against monkey LLC-MK2 cells assessed as reduction in cell viability incubated for 72 hrs by MTT assay. The class given is cell-based, Macaca mulatta. The following applies: rhesus monkey. (In general: Tetrazolium assays rely on reduction of a dye to a coloured formazan, in cell work by metabolically active cells.)
Data set [3] concerns Trypanosoma cruzi. The data set is described as follows: Antitrypanosomal activity against intracellular amastigote form of Trypanosoma cruzi Tulahuen strain infected in monkey LLC-MK2 cells assessed as reduction in parasite viability incubated for 72 hrs by beta-galactosidase reporter gene assay. The class given is functional, organism-based.
Data set [4] concerns Trypanosoma cruzi. The data set is described as follows: Potency index, ratio of benznidazole IC50 to test compound IC50 for antitrypanosomal activity against intracellular amastigote form of Trypanosoma cruzi Tulahuen strain infected in monkey LLC-MK2 cells assessed as reduction in parasite viability incubated for 72 hrs by beta-galactosidase reporter gene assay. In kind it is functional. On the technique in general: A reporter such as luciferase makes a cellular process visible.

Data set [5] is described as follows: Reduction in inflammatory cell infiltration in heart of BALB/c mouse infected with blood trypomastigote form of Trypanosoma cruzi strain Y at 25 mg/kg, po administered via gavage daily for 15 days starting from 2 days post-infection and measured on 16th day post-infection by haematoxylin and eosin staining based microscopic analysis relative to control. In kind it is functional. To be noted: 360 h, time 15 day.

Data set [6] is described as follows: Hepatotoxicity in BALB/c mouse infected with blood trypomastigote form of Trypanosoma cruzi strain Y assessed as AST level in plasma at 25 mg/kg, po administered via gavage daily for 15 days starting from 2 days post-infection and measured on 16th day post-infection. In kind it is toxicity, organism-based. To be noted: in vivo, 360 h, time 15 day.
Data set [7] in a line: Hepatotoxicity in BALB/c mouse infected with blood trypomastigote form of Trypanosoma cruzi strain Y assessed as ALT level in plasma at 25 mg/kg, po administered via gavage daily for 15 days starting from 2 days post-infection and measured on 16th day post-infection. The class given is toxicity, organism-based. The following applies: in vivo, 360 h, time 15 day.
Data set [8] can be described thus: Renal toxicity in BALB/c mouse infected with blood trypomastigote form of Trypanosoma cruzi strain Y assessed as creatinine level in plasma at 25 mg/kg, po administered via gavage daily for 15 days starting from 2 days post-infection and measured on 16th day post-infection. The class given is organism-based. The following applies: in vivo, 360 h, time 15 day.
A short description of data set [9]: Cardiac toxicity in BALB/c mouse infected with blood trypomastigote form of Trypanosoma cruzi strain Y assessed as CK-MB level in plasma at 25 mg/kg, po administered via gavage daily for 15 days starting from 2 days post-infection and measured on 16th day post-infection. In kind it is organism-based. The following applies: in vivo, 360 h, time 15 day.
In data set [10] the test system is Trypanosoma cruzi. The data set is described as follows: Antitrypanosomal activity against blood trypomastigote form of Trypanosoma cruzi strain Y infected in BALB/c mouse assessed as reduction in amastigote nest in host heart at 25 mg/kg, po administered via gavage daily for 15 days starting from 2 days post-infection and measured on 16th day post-infection by haematoxylin and eosin staining based microscopic analysis. The class given is functional. To be noted: for inhibition in vivo at 25 mg/kg: 360 h, time 15 day.

The test system of data set [11] is Trypanosoma cruzi. Kind of data set: Antitrypanosomal activity against blood trypomastigote form of Trypanosoma cruzi strain Y infected in BALB/c mouse assessed as reduction in parasite DNA load in host heart at 25 mg/kg, po administered via gavage daily for 15 days starting from 2 days post-infection and measured on 16th day post-infection by qPCR analysis relative to control. The class given is functional. The following applies: for Activity: time 15.0 day. For orientation: Real-time PCR tracks product formation cycle by cycle.

Data set [12] relates to Trypanosoma cruzi. The data set is described as follows: Antitrypanosomal activity against blood trypomastigote form of Trypanosoma cruzi strain Y infected in BALB/c mouse assessed as reduction in parasitemia at 25 mg/kg, po administered via gavage daily for 15 days starting from 2 days post-infection and measured on 7th day post-infection by optical microscopy relative to control. The class given is functional. To be noted: 360 h, time 15 day.

In data set [13] the test system is Trypanosoma cruzi. The data set is described as follows: Antitrypanosomal activity against blood trypomastigote form of Trypanosoma cruzi strain Y infected in BALB/c mouse assessed as reduction in parasitemia at 25 mg/kg, po administered via gavage daily for 15 days starting from 2 days post-infection and measured on 13th day post-infection by optical microscopy relative to control. The following applies: 360 h, time 15 day. In kind it is functional.

Where [14] appears, read: Trypanosoma cruzi, Tulahuen, LLC-MK2, 72 h, read-out: IC50.

On to `COc1ccc(/C=N/NC(=O)c2cc(-c3ccccc3)nc3c2c(C)nn3-c2ccccc2)cc1O`, for which, in data set [1], the selectivity ratio was 2.52. Further, the CC50 (in general, the concentration at which the toxic effect on the cells reaches its halfway point) at 72 h in data set [2] was 53 µM. Further, the IC50 (commonly the concentration that gives 50% inhibition) with Trypanosoma cruzi [3] (setting [14]) was found to be 21 µM.
Taken in the same sequence, the figures for `CC(=O)Oc1ccc(C2OC(c3cc(-c4ccccc4)nc4c3c(C)nn4-c3ccccc3)=NN2C(C)=O)cc1OC(C)=O` (stereo not drawn) were 1.6, 54.5 µM and 33.9 µM.
Taken in the same sequence, the figures for `CC(=O)Oc1cccc(C2OC(c3cc(-c4ccccc4)nc4c3c(C)nn4-c3ccccc3)=NN2C(C)=O)c1` (stereo not drawn) were more than 6.15, more than 100 µM and 16.2 µM.
The matching figures for `Cc1nn(-c2ccccc2)c2nc(-c3ccccc3)cc(C(=O)N/N=C/c3cccc(O)c3)c12`: 3, 69.6 µM and 23.2 µM.
For the molecule `CC(=O)N1N=C(c2cc(-c3ccccc3)nc3c2c(C)nn3-c2ccccc2)OC1c1cccc(O)c1` (stereo not drawn), in [1], the selectivity ratio worked out at 1.63. Moreover, the CC50 at 72 h in data set [2] turned out to be 17.2 µM. Also, in the data set with Trypanosoma cruzi [3] (setting [14]), the IC50 came to 10.5 µM.
The matching figures for `Cc1nn(-c2ccccc2)c2nc(-c3ccccc3)cc(C(=O)N/N=C/c3ccc(O)c(O)c3)c12`: 3.11, 71.2 µM and 22.9 µM.
The matching figures for `Cc1nn(-c2ccccc2)c2nc(-c3ccccc3)cc(C(=O)N/N=C/c3ccc(O)cc3)c12`: more than 250, more than 250 µM and 21.4 µM.
Regarding `COc1ccc(C2OC(c3cc(-c4ccccc4)nc4c3c(C)nn4-c3ccccc3)=NN2C(C)=O)cc1OC(C)=O` (stereo not drawn), the concentration for half-maximal inhibition (IC50) entry in the data set with Trypanosoma cruzi [3] (llc-mk2) is given as “Nd(Insoluble)”.
For `Cc1nn(-c2ccccc2)c2nc(-c3ccccc3)cc(C(=O)N/N=C/c3ccccc3O)c12`, the “Ratio IC50” value in the data set with Trypanosoma cruzi [4] is 4. Further, the inhibition in vivo (commonly the drop in the measured response relative to a control, in per cent) at 25 mg/kg was 62.5% in data set [5], 44.7% in the data set on Trypanosoma cruzi [12] and 14.5% in the data set on Trypanosoma cruzi [13]. Also, the Activity result in data set [6] is “Non-Toxic”; in data set [7] it was “Non-Toxic”; in data set [8], “Non-Toxic”; in [9], “Toxic”. Further, the result in the data set on Trypanosoma cruzi [10] (time 15.0 day) and in the data set with Trypanosoma cruzi [11] was inactive. In addition, in data set [1], the selectivity ratio was more than 235. Besides, the CC50 at 72 h in [2] was more than 200 µM. In addition, the IC50 with Trypanosoma cruzi [3] (setting [14]) came to 0.85 µM.
Regarding `CC(=O)Oc1ccccc1C1OC(c2cc(-c3ccccc3)nc3c2c(C)nn3-c2ccccc2)=NN1C(C)=O` (stereo not drawn), the inhibition in vivo at 25 mg/kg in [5] amounted to 51%; in the data set with Trypanosoma cruzi [10], 57%; in the data set with Trypanosoma cruzi [12] it was 46.1%; in the data set on Trypanosoma cruzi [13] it was 53%. Further, the Activity result in [6], in data set [7], in [8] and in data set [9] was “Non-Toxic” throughout. Besides, in the data set with Trypanosoma cruzi [11], the outcome was inactive. Also, the selectivity ratio in data set [1] is more than 90.1. For the same molecule, the CC50 at 72 h in data set [2] is more than 100 µM. The IC50 in the data set on Trypanosoma cruzi [3] (setting [14]) came to 1.11 µM.
For `O=C(Cn1ccnc1[N+](=O)[O-])NCc1ccccc1` [BENZNIDAZOLE], the inhibition in vivo at 25 mg/kg in data set [5] was 76%; in the data set on Trypanosoma cruzi [10], 100%; in the data set on Trypanosoma cruzi [11] (360 h, time 15 day) it was 99%. Besides, the Activity result in data set [6], in [7], in [8] and in data set [9] was “Non-Toxic” throughout. Moreover, the selectivity ratio in [1] is more than 50.2. In [2], the CC50 at 72 h is more than 200 µM. Moreover, the IC50 in the data set with Trypanosoma cruzi [3] (setting [14]) was 3.98 µM.
On to `CC(=O)N1N=C(c2cc(-c3ccccc3)nc3c2c(C)nn3-c2ccccc2)OC1c1ccc(O)cc1` (stereo not drawn), for which the selectivity ratio in data set [1] was found to be 1.94. For the same molecule, in data set [2], the CC50 at 72 h was determined as 34.4 µM. Further, in the data set with Trypanosoma cruzi [3] (setting [14]), the IC50 was determined as 17.7 µM.
The matching figures for `CC(=O)Oc1ccc(C2OC(c3cc(-c4ccccc4)nc4c3c(C)nn4-c3ccccc3)=NN2C(C)=O)cc1` (stereo not drawn): 2.86, 64.8 µM and 22.6 µM.
